Series [1] has as its system Liver. The series can be described thus: Apparent distribution ratio of the compound in healthy Wistar rat perfused liver at 4 mM after 10 mins. The format is ADME, tissue-based. To be noted: 4000 µM.
Series [2] in a line: Dissociation constant, pKa of the compound. It is filed as physicochemical.
Series [3] deals with Liver. In words: Mean transit time of the compound in perfused liver of high-fat emulsion-induced nonalcoholic steatohepatitis Wistar rat at 4 mM after 10 mins. It is filed as ADME, tissue-based. The following applies: 4000 µM.
Series [4] can be described thus: Extraction ratio of the compound in healthy Wistar rat perfused liver at 4 mM after 10 mins. It is filed as ADME, tissue-based. To be noted: read-out: ERH.
Series [5] is described as follows: Extraction ratio of the compound in perfused liver of high-fat emulsion-induced nonalcoholic steatohepatitis Wistar rat at 4 mM after 10 mins. The format is ADME, tissue-based. The following applies: read-out: ERH.
Series [6] has as its system Liver. The series can be described thus: Mean transit time of the compound in healthy Wistar rat perfused liver at 4 mM after 10 mins. It is filed as ADME, tissue-based. The following applies: 4000 µM.
Series [7] has as its system Liver. The series can be described thus: Apparent distribution ratio of the compound in perfused liver of high-fat emulsion-induced nonalcoholic steatohepatitis Wistar rat at 4 mM after 10 mins. The format is ADME, tissue-based. To be noted: 4000 µM.
Series [8] in a line: Octanol-water apparent partition coefficient, logD of the compound at pH 7.4. The format is physicochemical.
Series [9] concerns Liver. The series can be described thus: Mean transit time of the compound in perfused liver of high-fat emulsion-induced nonalcoholic steatohepatitis Wistar rat at 6 mM after 10 mins. It is filed as ADME, tissue-based. To be noted: 6000 µM.
Series [10] relates to Liver. In words: Apparent distribution ratio of the compound in perfused liver of high-fat emulsion-induced nonalcoholic steatohepatitis Wistar rat at 6 mM after 10 mins. To be noted: 6000 µM. The format is ADME, tissue-based.
Series [11] can be described thus: in vitro. To be noted: Wistar, rat, perfused liver.
Description: Extraction ratio of the compound in healthy Wistar rat perfused liver at 6 mM after 10 mins
Series [12] deals with Liver. The series can be described thus: Apparent distribution ratio of the compound in healthy Wistar rat perfused liver at 6 mM after 10 mins. It is filed as ADME, tissue-based. To be noted: 6000 µM.
For series [13], the system named is Liver. The series can be described thus: Drug distribution in perfused liver of high-fat emulsion-induced nonalcoholic steatohepatitis Wistar rat assessed as equilibrium amount ratio charactering slow binding process at 6 mM after 10 mins. The following applies: in vivo, 6000 µM. The format is ADME, tissue-based.
Series [14] in a line: in vitro. To be noted: Wistar, rat, perfused liver. The source holds these as a separate data set.
Description: Extraction ratio of the compound in perfused liver of high-fat emulsion-induced nonalcoholic steatohepatitis Wistar rat at 6 mM after 10 mins
Series [15] has as its system Liver. The series can be described thus: Drug distribution in perfused liver of high-fat emulsion-induced nonalcoholic steatohepatitis Wistar rat assessed as equilibrium amount ratio charactering fast binding process at 6 mM after 10 mins. It is filed as ADME, tissue-based. The following applies: in vivo, 6000 µM.
Series [16] has as its system Liver. The series can be described thus: Drug distribution in healthy Wistar rat perfused liver assessed as equilibrium amount ratio charactering fast binding process at 6 mM after 10 mins. The format is ADME, tissue-based. The following applies: in vivo, 6000 µM.
For series [17], the system named is Liver. The series can be described thus: Drug distribution in healthy Wistar rat perfused liver assessed as equilibrium amount ratio charactering slow binding process at 6 mM after 10 mins. The format is ADME, tissue-based. The following applies: in vivo, 6000 µM.
For series [18], the system named is Liver. The series can be described thus: Mean transit time of the compound in healthy Wistar rat perfused liver at 6 mM after 10 mins. It is filed as ADME, tissue-based. The following applies: 6000 µM.
Series [19] relates to Liver. The series can be described thus: Drug distribution in healthy Wistar rat perfused liver assessed as equilibrium amount ratio charactering slow binding process at 3 mM after 10 mins. It is filed as ADME, tissue-based. The following applies: in vivo, 3000 µM.
Series [20] concerns Liver. The series can be described thus: Mean transit time of the compound in healthy Wistar rat perfused liver at 3 mM after 10 mins. To be noted: 3000 µM. The format is ADME, tissue-based.
The subject of series [21] is Liver. The series can be described thus: Apparent distribution ratio of the compound in perfused liver of high-fat emulsion-induced nonalcoholic steatohepatitis Wistar rat at 3 mM after 10 mins. It is filed as ADME, tissue-based. The following applies: 3000 µM.
Series [22] relates to Liver. In words: Mean transit time of the compound in perfused liver of high-fat emulsion-induced nonalcoholic steatohepatitis Wistar rat at 3 mM after 10 mins. The format is ADME, tissue-based. To be noted: 3000 µM.
Series [23] has as its system Liver. The series can be described thus: Mean transit time of the compound in healthy Wistar rat perfused liver at 8 mM after 10 mins. The format is ADME, tissue-based. To be noted: 8000 µM.
The subject of series [24] is Liver. In words: Apparent distribution ratio of the compound in healthy Wistar rat perfused liver at 8 mM after 10 mins. It is filed as ADME, tissue-based. The following applies: 8000 µM.
In series [25] the test system is Liver. The series can be described thus: Mean transit time of the compound in perfused liver of high-fat emulsion-induced nonalcoholic steatohepatitis Wistar rat at 8 mM after 10 mins. It is filed as ADME, tissue-based. The following applies: 8000 µM.
Series [26] has as its system Liver. In words: Drug distribution in perfused liver of high-fat emulsion-induced nonalcoholic steatohepatitis Wistar rat assessed as equilibrium amount ratio charactering fast binding process at 8 mM after 10 mins. It is filed as ADME, tissue-based. To be noted: in vivo, 8000 µM.
The subject of series [27] is Liver. In words: Drug distribution in healthy Wistar rat perfused liver assessed as equilibrium amount ratio charactering slow binding process at 8 mM after 10 mins. It is filed as ADME, tissue-based. To be noted: in vivo, 8000 µM.
In series [28] the test system is Liver. The series can be described thus: Drug distribution in perfused liver of high-fat emulsion-induced nonalcoholic steatohepatitis Wistar rat assessed as equilibrium amount ratio charactering slow binding process at 8 mM after 10 mins. It is filed as ADME, tissue-based. To be noted: in vivo, 8000 µM.
Series [29] has as its system Liver. In words: Drug distribution in healthy Wistar rat perfused liver assessed as equilibrium amount ratio charactering fast binding process at 8 mM after 10 mins. It is filed as ADME, tissue-based. The following applies: in vivo, 8000 µM.
For series [30], the system named is Liver. The series can be described thus: Apparent distribution ratio of the compound in perfused liver of high-fat emulsion-induced nonalcoholic steatohepatitis Wistar rat at 8 mM after 10 mins. It is filed as ADME, tissue-based. The following applies: 8000 µM.

As usually defined, the pKa is the negative logarithm of the acid dissociation constant. Read a high pKa as a group that holds its proton tightly. As to `Cc1cc(=O)n(-c2ccccc2)n1C` [ANTIPYRINE], the K in series [1] is 2.67; in series [7] it was 4.5. The pKa in series [2] amounted to 1.45. Moreover, the results for the MTT in series [3] and in series [6] were 64.12 s and 46.46 s, respectively. In addition, the hepatic extraction ratio at 10 min, 4000 µM was 0.16 in series [4] and 0.08 in series [5]. Further, in [8] (read-out: LogD7.4), the logD came to 0.33.
With `CC(C)NCC(O)COc1ccc(CC(N)=O)cc1` (stereo unspecified) [ATENOLOL], the results for the K in series [1] and in [7] were 9.9 and 12.51, respectively. Also, the MTT in [3] is recorded as 18.63 s; in series [6], 13.12 s.
Turning to `CC(CCc1ccccc1)NCC(O)c1ccc(O)c(C(N)=O)c1` (stereo unspecified) [LABETALOL], the MTT in series [9] is 33.98 s; in series [18], 29.1 s. The K worked out at 10.94 in series [10]; 6.45 in series [12]; 11.81 in series [13]; 1.94 in series [15]; 1.08 in series [16]; 6.78 in series [17]. Moreover, the values for the hepatic extraction ratio at 10 min, 6000 µM in series [11] and in [14] were 0.86 and 0.79, respectively. Also, the LogD7.4 in series [8] was 2.69.
Turning to `COCCc1ccc(OCC(O)CNC(C)C)cc1` (stereo unspecified) [METOPROLOL], the figures for the K in series [19] and in [21] were 2.27 and 11.97, respectively. Besides, the values for the MTT in series [20] and in [22] were 60.26 s and 67.43 s, respectively. Also, the LogD7.4 in [8] came to 1.79.
Consider `CC(C)NCC(O)COc1cccc2ccccc12` (stereo unspecified) [PROPRANOLOL], for which the MTT in series [23] stood at 58.14 s; in series [25], 70.99 s. Besides, the K amounted to 10.76 in series [24]; 0.38 in [26]; 13.59 in [27]; 5.35 in series [28]; 1.96 in [29]; 16.31 in series [30].

For the origin of these results see ChEMBL document CHEMBL3526036, “Hepatic pharmacokinetics of cationic drugs in a high-fat emulsion-induced rat model of nonalcoholic steatohepatitis” (Drug Metab Dispos, 2011).
